Laboratory results: US10597388B2, “Pyridazinone herbicides” (FMC CORPORATION, priority 2014, dated 2020)

Experiments:
Format in all cases: in vivo
[1] = test system: oat, wild (wild oat, Avena fatua); test: Test C greenhouse herbicide test, postemergence; conditions: Postemergence
Outline: (§1)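 Postemergence foliar treatment, 1- to 4-leaf stage (2–18 cm), peat/vermiculite medium; greenhouse 13–15 d; visual rating vs controls, 0 = no effect, 100 = complete control; dash = no result.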

kochia (Kochia scoparia) = test: Test C greenhouse herbicide test, postemergence; conditions: Postemergence
Outline: as §1

[2] = test system: ryegrass, Italian (Italian ryegrass, Lolium multiflorum); test: Test C greenhouse herbicide test, pre- and postemergence; conditions: Postemergence
Outline: (§2)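 Preemergence: seeds sown in a loam soil–sand blend and sprayed with test chemicals in a non-phytotoxic solvent mixture containing surfactant. Postemergence: plants grown in peat-based medium and treated at 2 to 18 cm (1- to 4-leaf stage). After 13 to 15 d in a greenhouse, injury was visually rated 0–100 against controls.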

soybean (Glycine max) = test: as above; conditions: Postemergence
Outline: as §2

[3] = test system: morningglory (Ipomoea coccinea); test: as above; conditions: Postemergence
Outline: as §2

[4] = test system: pigweed (Amaranthus retroflexus); test: as above; conditions: Postemergence
Outline: as §2

[5] = test system: johnsongrass (Sorghum halepense); test: as above; conditions: Postemergence
Outline: as §2

[6] = test system: barnyardgrass (Echinochloa crus-galli); test: as above; conditions: for Plant response rating, Barnyardgrass: Postemergence
Outline: as §2

corn (Zea mays) = test: as above; conditions: for Plant response rating, Corn: Postemergence
Outline: as §2

[7] = test system: lambsquarters (Chenopodium album); test: as above; conditions: Postemergence
Outline: as §2

[8] = test system: crabgrass, large (large crabgrass, Digitaria sanguinalis); test: as above; conditions: for Plant response rating, Crabgrass, Large: Postemergence
Outline: as §2

[9] = test system: waterhemp (common waterhemp, Amaranthus rudis); test: as above; conditions: Postemergence
Outline: as §2

[10] = test system: foxtail, giant (giant foxtail, Setaria faberii); test: as above; conditions: Postemergence
Outline: as §2

[11] = test system: ragweed (common ragweed, Ambrosia elatior); test: as above; conditions: Postemergence
Outline: as §2

[12] = test system: wheat (winter wheat, Triticum aestivum); test: as above; conditions: Postemergence
Outline: as §2

[13] = test system: blackgrass (Alopecurus myosuroides); test: as above; conditions: for Plant response rating, Blackgrass: Postemergence
Outline: as §2

[14] = 31 g ai/ha, scale 0 to 100 (0 no effect, 100 complete control)
[15] = 125 g ai/ha, scale 0 to 100, 0 is no effect, 100 is complete control
[16] = 250 g ai/ha, scale 0 to 100, 0 no effect, 100 complete control, 13 to 15 d
[17] = postemergence, 62 g ai/ha, scale 0 to 100, 0 no effect, 100 complete control

Cc1nn(C)c(=O)c(-c2ccc(F)c3ccccc23)c1OC(=O)CC(F)(F)F [Compound 123]
40: Plant response rating, Barnyardgrass [6, 15]
10: Plant response rating, Soybean (soybean (Glycine max); [14]) | Plant response rating, Corn (corn (Zea mays); [14]) | Plant response rating, Crabgrass, Large [8, 14]
70: Plant response rating, Oat, Wild [1, 14] | Plant response rating, Barnyardgrass [6, 16]
75: Plant response rating, Crabgrass, Large [8, 16] | Plant response rating, Ragweed [11, 14]
35: Crabgrass, Large plant response rating [8, 17] | Plant response rating, Foxtail, Giant [10, 15] | Blackgrass plant response rating [13, 17]
25: Plant response rating, Johnsongrass [5, 16] | Barnyardgrass plant response rating [6, 17]
45: Plant response rating, Blackgrass [13, 15] | Plant response rating, Blackgrass [13, 16]
95: Plant response rating, Oat, Wild [1, 16] | Plant response rating, Kochia (kochia (Kochia scoparia); [14]) | Plant response rating, Kochia (kochia (Kochia scoparia); [15]) | Plant response rating, Ryegrass, Italian [2, 16] | Plant response rating, Morningglory [3, 14] | Plant response rating, Lambsquarters [7, 14] | Plant response rating, Ragweed [11, 15]
90: Plant response rating, Oat, Wild [1, 15] | Plant response rating, Ryegrass, Italian [2, 14] | Plant response rating, Ryegrass, Italian [2, 15]
30: Plant response rating, Crabgrass, Large [8, 15]
80: Plant response rating, Pigweed [4, 15] | Plant response rating, Waterhemp [9, 14] | Plant response rating, Foxtail, Giant [10, 16]
98: Plant response rating, Kochia (kochia (Kochia scoparia); [16]) | Plant response rating, Morningglory [3, 15] | Plant response rating, Pigweed [4, 16] | Plant response rating, Ragweed [11, 16]
20: Plant response rating, Soybean (soybean (Glycine max); [15]) | Plant response rating, Johnsongrass [5, 15] | Plant response rating, Barnyardgrass [6, 14] | Plant response rating, Corn (corn (Zea mays); [15]) | Plant response rating, Corn (corn (Zea mays); [16]) | Plant response rating, Foxtail, Giant [10, 14] | Plant response rating, Wheat [12, 16]
65: Plant response rating, Soybean (soybean (Glycine max); [16]) | Plant response rating, Pigweed [4, 14]
100: Plant response rating, Morningglory [3, 16] | Plant response rating, Lambsquarters [7, 15] | Plant response rating, Lambsquarters [7, 16] | Plant response rating, Waterhemp [9, 15] | Plant response rating, Waterhemp [9, 16]
5: Plant response rating, Johnsongrass [5, 14] | Plant response rating, Wheat [12, 14]
15: Corn plant response rating (corn (Zea mays); [17]) | Plant response rating, Wheat [12, 15] | Plant response rating, Blackgrass [13, 14]
